Tests used:
[1] = system: osteoblast-like Saos-2 cells; experiment: Saos-2 cell proliferation, MTS; format: cell-based; settings: in percentage of control (100%; 0.1 nM of estradiol)
Description: First, we wanted to evaluate their effect on cell proliferation. […] This is outlined in FIG. 8A. […] One of the main roles of osteoblasts in bone tissue is to construct a calcified extracellular matrix.^15 As such, bone formation is not principally due to osteoblasts proliferation but rather osteoblasts maturation into mature osteocytes. […] This is outlined in FIG. 8B.
(§1) CellTitter 96® Aqueous One Solution Cell Proliferation Assay was used as an indirect colorimetric measurement of cell proliferation according to the manufacturer's instructions. Briefly, after the treatments, 20 μL of MTS solution was added to each well (100 μL) of the plates and incubated at 37° C. for 2 h (Saos-2) or 4 h (T-47D). The absorbance at 490 nm was then measured with a Thermo max microplate reader (Molecular Devices, Sunnyvale, Calif.). The control (culture media+DMSO) is set to 100% of cell proliferation.
Saos-2 cells were suspended in phenol-red free McCoy's 5A medium supplemented with 10% charcoal-stripped FBS, penicillin (100 IU/mL) and streptomycin (100 μg/mL). The cells were seeded in 96-well plates at a density of 3 000 cells/well and allowed to attach. After 24 h, the inhibitors and the reference compounds diluted in fresh culture media were added to the wells and replaced every 2 days for 7 days of treatment.

Saos-2 (ER+) cells = experiment: Proliferative activity on Saos-2 (ER+) cells, phenol library; format: cell-based; settings: 1 μM (stated for reference compounds); 7 days; control 100%
Protocol: Estrogens are known to have a beneficial effect on bones. […] The phenol derivatives 3′-EO-09 to 3′-EO-11 and 3′-EO-14 to 3′-EO-17 were tested on the osteoblast-like cell line Saos-2 to further evaluate their SERM capacity (FIG. 13A).
The osteoblast-like Saos-2 cells were maintained in culture flasks (175 cm^2 growth area, BD Falcon) at 37° C. in a 5% CO2 humidified atmosphere and grown in McCoy's 5A medium supplemented with 10% fetal bovine serum (FBS), penicillin (100 IU/mL) and streptomycin (100 μg/mL). Penicillin/streptomycin mix, L-Glutamine, normal and charcoal-stripped FBS were purchased from Wisent, Inc. (St-Bruno, QC, Canada), phenol-red free McCoy's 5A was purchased from PromoCell (Heidelberg, Germany). Chemicals tested were first dissolved in DMSO and subsequent dilutions were done in the cell culture medium. The final concentration of DMSO in the culture medium was 0.1% or less. For the proliferation assay, the […] FBS in the culture medium was replaced with 10% charcoal-stripped FBS. The cells were seeded in 96-well plates at a density of 10 000 cells/well and allowed to attach 24 h. After 24 h, the phenolic compounds diluted in culture medium were added to the wells and replaced every 2 days for 7 days of treatment. As reported above, MTS was used as an indirect colorimetric measurement of cell proliferation according to the manufacturer's instructions, except the plate were incubated 2 h instead of 4 h.

steroid sulfatase (STS) = biological target: T1, steroid sulfatase (STS) (Homo sapiens, UniProt P08842); experiment: Steroid sulfatase (STS) inhibition, [3H]-E1S to [3H]-E1, homogenate of transfected HEK-293 cells; format: biochemical; settings: transformation of E1S into E1 in homogenate of HEK-293 cells transfected with STS; read-out: Steroid Sulfatase Inhibition IC50
T1 construct: expressed in transfected cells; host or cells: HEK-293 cells stably transfected with STS (G418 selection), obtained from Dr. Van Luu-The; used as freeze-thaw homogenate
T1 sequence (P08842 22-583): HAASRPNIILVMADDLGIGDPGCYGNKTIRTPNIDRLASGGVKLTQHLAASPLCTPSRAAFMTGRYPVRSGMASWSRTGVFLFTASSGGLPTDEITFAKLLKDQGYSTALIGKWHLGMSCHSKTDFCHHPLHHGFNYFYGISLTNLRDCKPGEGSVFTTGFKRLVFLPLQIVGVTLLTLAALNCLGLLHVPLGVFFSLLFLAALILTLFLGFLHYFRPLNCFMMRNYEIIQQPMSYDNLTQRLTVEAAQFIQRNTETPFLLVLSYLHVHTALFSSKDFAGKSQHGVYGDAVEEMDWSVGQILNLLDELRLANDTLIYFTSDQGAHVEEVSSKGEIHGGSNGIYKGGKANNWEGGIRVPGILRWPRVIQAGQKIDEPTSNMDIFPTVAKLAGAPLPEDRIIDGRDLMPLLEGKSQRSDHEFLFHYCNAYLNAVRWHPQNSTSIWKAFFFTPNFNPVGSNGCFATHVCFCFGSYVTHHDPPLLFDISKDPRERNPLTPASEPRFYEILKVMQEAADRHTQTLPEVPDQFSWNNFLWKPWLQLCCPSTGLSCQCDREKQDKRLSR
Protocol: To test STS inhibition, we used homogenated HEK-293 cells overexpressing STS and evaluated the capacity of our compounds to inhibit the conversion of [^3H]-E1S into [^3H]-E1. […] This is outlined in FIG. 5.
An enzymatic assay previously described was used for the inhibition of the transformation of estrone sulfate (E1S) to estrone (E1) by STS.^72 Briefly, the transfected HEK-293 cells were homogenized by repeated (5 times) cycles of freezing (−80° C.) and thawing on ice (4° C.). The homogenates were then incubated for 2 h at 37° C. (shaking water bath) with or without inhibitors (0.01 μM-1 μM) in presence of [^3H]-E1S (9 nM), adjusted to 1 μM with E1S, in a Tris-acetate buffer (pH 7.4) containing 5 mM EDTA and 10% glycerol. After the incubation, 1 mL of xylene was added to each tube and the solutions were then centrifuged at 3000 rpm for 20 min to separate the organic ([^3H]-E1) and aqueous ([^3H]-E1S) phases. Once 500 μL of each phase was added to 10 mL of Biodegradable Counting Scintillant, the radioactivity of samples was recorded using a Wallac 1411 Liquid Scintillation Counter. The percentage of inhibition was determined by comparison with the control (buffer+homogenate+[^3H]-E1S) which was set to 0% of inhibition. IC50 value was obtained using GraphPad Prism 5 (GraphPad Software, La Jolla, Calif.).

T-47D cells = experiment: T-47D cell proliferation in presence of E2 (antiestrogenicity); format: cell-based; settings: Homo sapiens, T47D; read-out: Breast cancer cells T-47D (ER+) Antagonist activity (%)
Protocol: as §1
The cells were plated in 96-well plates at a density of 3 000 cells/well and allowed to attach for 48 h. After this pre-incubation, the inhibitors and the reference compounds diluted in fresh culture media were added to the wells and replaced every 2 days for 7 days of treatment.

In the case of C[C@]12CC[C@@H]3c4ccc(O)cc4CC[C@H]3[C@@H]1CC[C@@H]2O [E2, 17β-estradiol, reference compound], the “Bone cells Saos-2 (ER+) SERM effect Proliferative activity (%)” value ([1]; 0.1 μM) is reported as 100%, the “Bone cells Saos-2 (ER+) SERM effect Proliferative activity (%)” value ([1]; 1 μM) is reported as 100% and the “proliferation of Saos-2 cells” value (Saos-2 (ER+) cells) is reported as 144%. For the same molecule, the IC50 (steroid sulfatase (STS)) was over 1 µM and the inhibition at 1 µM (T-47D cells) was 0%.
